Holding throughout (format): cell-based, Human
The subject of assay [1] is A549 cells. The assay can be described thus: Molecular screening assay (MALDI FTICR MS, molecular variance score). On the procedure:
After incubation for the respective times, wells were washed 3 times with PBS and stored at −80° C. The effect of different toxin dosage amounts and exposure times on the molecular content of a sample may be evaluated and reported directly for thousands of molecular species based upon the mass spectra that were collected for each of the samples. A comparison of the mass-to-charge (m/z) peak content between spectra from dosed cells and a reference spectrum from a non-dosed control sample delivers a mass spectrometric assessment of toxicity-induced molecular variation. However, seeking a data-driven global comparison instead of focusing on specific molecular species of interest makes the assessment of molecular change between the different experimental conditions very complex and high-dimensional. To determine which dosage amount induces the greatest molecular change, the inventors developed a quick and broad assessment of toxicity-induced molecular variance summarizing the entire recorded mass range. […]
Within each time point (represented by a 24-well plate), seven different dosage conditions were measured: six different toxin dosages and one reference condition (e.g., untreated). Per dosage condition there were nine distinct replicate measurements made: each dosage condition was represented by three replicate wells, from which three technical replicate spectra were measured per well. […]

Assay [2] concerns A549 cells. Put plainly: Apoptosis assay (ApoONE, caspase 3/7 activation). To be noted: 50 μM cisplatin. On the procedure: Cell viability and apoptosis were assessed by CellTiter Glo (Promega) and ApoONE (Promega) kits, respectively. Molecular changes were screened using a MALDI-FTICR MS platform.
Human lung carcinoma A549 cells were obtained from ATCC (Manassas, Va.) and cultured in Dulbecco's Modified Eagle's Medium (DMEM, Gibco) with 10% v/v heat-inactivated fetal bovine serum (Atlanta Biologicals) and 1% v/v penicillin/streptomycin (P/S) (Gibco) at 37° C. with 5% CO2 atmosphere. Stable isotope labeling by amino acids in cell culture (SILAC) media were prepared using SILAC DMEM (Thermo Scientific) containing 10% v/v dialyzed heat-inactivated FBS (Fisher), 1% v/v P/S, proline (250 mg/L) (Thermo Scientific), and appropriate light and heavy labeled arginine (84 mg/L), lysine (146 mg/L). […]
At each time point, cell viability and apoptosis were assessed by CellTiter-Glo (Promega) and ApoONE (Promega) kits, respectively. Plates were incubated at 37° C. in a plate reader (BioTek) with data 174 acquisition every 10 min by luminescence (1 s read time, 200 gain) and fluorescence (485 nm excitation, 528 nm emission). […] Cell viability was also assessed using the LIVE/DEAD Viability/Cytotoxicity Kit for mammalian cells (ThermoFisher). […]

The test system of assay [3] is A549 cells. The assay can be described thus: Multi-omics analysis (transcriptome, proteome, phosphoproteome, metabolome). On the procedure: Samples were analyzed for transcriptome changes by RNA sequencing at the Genomics Services Lab, HudsonAlpha, for proteome changes by label free, SILAC, and phospho-enriched SILAC LC-MS/MS, and metabolome changes by UPLC-IM-MS and data-independent acquisition (MSE) using both hydrophilic-interaction liquid chromatography and reverse phase liquid chromatography.
For proteomic and metabolomic label-free analyses, five sterile indium tin oxide (ITO)-coated glass slides (Delta Technologies) were placed in a tissue culture flask with removable lid (TPP). […] For proteomic analyses, slides were removed and washed 3 times with PBS, placed on dry ice, flash-frozen in liquid nitrogen, and stored at −80° C. prior to lysis. For metabolomics analysis, slides were washed in 50 mM ammonium formate.
For SILAC experiments, A549 cells were cultured in SILAC media for two weeks to ensure isotopic amino acid incorporation (verified by proteomic analysis). […] Following treatment cells were washed 3 times with 4° C. PBS. For phospho-SILAC, cells were washed with 4° C. PBS containing 1 mM sodium orthovanadate.
RNA was isolated using the RNeasy Mini Kit (Qiagen). For each time point, untreated and cisplatin-treated samples were isolated in triplicate and analyzed by the Genomics Services Lab at HudsonAlpha. RNAseq was performed using poly(A) selection on an Illumina HiSeq v4 sequencing platform. Reads were paired-end with a read length of 50 bp and 50 million reads per sample.
Cells were scraped from slides and lysed in 300 μL of 50 mM Tris pH 8, 150 mM NaCl, 1% Nonidet 40, 1 mM EDTA with added HALT Protease Inhibitor Cocktail (Thermo Scientific), centrifuged, and assayed for protein concentration (BCA Protein Assay, Thermo Scientific Pierce) using a SpectraMax M2e Microplate Reader with SoftMax Pro software version 5 (Molecular Devices). Aliquots of 100 μg of protein were acetone precipitated in six times the volume for 2 h at −80° C. Precipitates were washed three times with cold acetone and reconstituted in 10 μL of neat trifluoroethanol (TFE) and 10 μL of 100 mM Tris (pH 8.0). Samples were reduced with 1 μL of 0.5 M Tris(2-carboxyethyl)phosphine hydrochloride (TCEP) for 30 minutes at room temperature and alkylated with 2 μL of 0.5 M IAA for 30 minutes at room temperature in the dark. Samples were diluted with 100 mM Tris (pH 8.0) to obtain a final solution containing 10% TFE. The samples were digested with 2 μg of trypsin (a ratio of 50:1 protein 273 to enzyme) overnight at 37° C. A solution of 60% formic acid (FA) was added to the samples until they reached pH 3. Aliquots of 5 μg of digested sample were desalted using C18 spin tips (Protea) according to the supplied protocol and dried samples were reconstituted in 15 μL of 0.1% FA. Five replicates of cisplatin treated and control (untreated) cells were prepared in parallel.
Samples were analyzed on a Thermo Scientific Orbitrap Fusion Tribrid mass spectrometer in line with a Thermo Scientific Easy-nLC 1000 UHPLC system. Samples, 2 μL, were injected via the autosampler and loaded onto a Thermo Scientific Acclaim PepMap 100 C18 UHPLC column (75 μm×250 mm, 2 μm particle size, 100 Å pore size), with 0.1% FA in water (mobile phase A). Peptides were separated over a 140 minute two-step gradient with initial conditions set to 100% mobile phase A for 5 minutes before ramping to 20% mobile phase B, 0.1% FA in ACN, over 100 minutes and then 32% mobile phase B over 20 minutes. The remainder of the gradient was spent washing at 95% mobile phase B and returning to initial conditions. Eluted peptides were ionized via positive mode nanoelectrospray ionization (nESI) using a Nanospray Flex ion source (Thermo Fisher Scientific). The mass spectrometer was operated using a 3 second top speed data-dependent acquisition mode. Fourier transform mas spectra (FTMS) were collected using 120,000 resolving power, an automated gain control (AGC) target of 200,000, and a maximum injection time of 50 ms. […]

Where [4] appears, read: 50 μM cisplatin for 1, 6, 24 and 48 h.

Molecules are shown by their SMILES.

For the molecule `N.N.[Cl][Pt][Cl]` [cisplatin], the “earliest time at which cisplatin-induced toxicity is measurable” value in the assay with A549 cells [1] (50 μM) was at most 1 h. In addition, the “optimal dose (maximum response in physiological and molecular screen, cell viability >50%)” value in the assay on A549 cells [1] (exposure 1 and 6 h molecular screen, 24 h caspase assay) came to 50 μM. For the same molecule, in the assay on A549 cells [2], the “caspase activation over time” value is given as “ceased after 48 h” and the “time of maximal caspase activation” value is reported as 24 h. Also, the “BAD phosphorylation (pSer75 at 48 h; pSer118 at 24 h and 48 h)” value in the assay with A549 cells [3] (50 μM cisplatin) is on record as “increased”. Besides, in the assay on A549 cells [3] (setting [4]), the “share of unique detected species significantly changed” value is listed as 24% and the “unique species significantly changed” value was 13,483. Further, in the assay on A549 cells [3] (50 μM cisplatin, 1, 6, 24, 48 h), the “phosphorylated ERK1 and/or ERK2 (pThr202/pTyr204; pThr185/pTyr187)” value is recorded as “increased at each time point”. Moreover, the ATP1A1 peptides result in the assay on A549 cells [3] (50 μM cisplatin, 6 and 24 h) is given as “decreased significantly”. Also, the “CUL4B C-terminal peptide” value with A549 cells [3] (50 μM cisplatin, 1 h) is on record as “increased”. Moreover, the Ncx1 transcript entry with A549 cells [3] (50 μM cisplatin, 6 h) was “significant decrease”. In the assay with A549 cells [3] (50 μM cisplatin, 24 h), the BAK1 entry was “increased”, the CASP9 transcript entry was “downregulation” and the “phosphorylated mTOR at pS1166” value is given as “increased”. Besides, the HUWE1 abundance result in the assay on A549 cells [3] (50 μM cisplatin, 48 h) is “decreased”. The “p53 pSer392” value with A549 cells [3] (50 μM cisplatin, beginning at 24 h) was “increased significantly”. The “p53 pSer313, pSer314 and/or pSer315” value in the assay with A549 cells [3] (50 μM cisplatin, starting at 6 h) is given as “increased significantly”. The “estrogen species (E1, E2)” value with A549 cells [3] (50 μM cisplatin, E1 up at 1 h, E1 and E2 up at 6 h, decreased by 24 h) is on record as “transiently increased”. Moreover, the “BAX, CYCS, APAF1 and CASP3 transcripts” value in the assay with A549 cells [3] (50 μM cisplatin, no proteomic abundance changes) is “transcriptional upregulation”.

The values are drawn from US10607721B2, “High-throughput, multi-omics approach to determine and validate de novo global mechanisms of action for drugs and toxins” (Vanderbilt University, priority 2015, dated 2020).
